Measured values reported in publication PMC8445441, “Elucidating the mechanism by which synthetic helper peptides sensitize Pseudomonas aeruginosa to multiple antibiotics” (PLoS Pathogens, 2021).
“And” between values parts separate entries of the source, which are not always exact repeats. Identical values can stand only once. Like-named read-outs stand apart in the source and are kept apart here. One block for each molecule: values may come before it.

How the values were obtained:
P. aeruginosa AUMC-Pa-3 = experiment: microbe, parasite or virus in culture; settings: strain AUMC-Pa-3; for MICac: MIC of the antibiotic in the combination: with D-11 at MICbc 4
Method in brief: (§1)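 CLSI broth dilution; MHB; ~1 × 10^6 CFU/mL suspension mixed equal volume with drug; 37 °C for 18 h; visual read; triplicate. Broth sometimes supplemented with PG, PE, PC, CL, LPS, MgCl2, CaCl2 or PAβN.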

P. aeruginosa AUMC-Pa-4 = experiment: microbe, parasite or virus in culture; settings: strain AUMC-Pa-4; for MICa: MIC of the antibiotic: antibiotic alone; for MICa: MIC of the antibiotic / MICac: MIC of the antibiotic in the combination: unit not given; for MICac: MIC of the antibiotic in the combination: with D-11 at MICbc 4
Method in brief: as §1

P. aeruginosa AUMC-Pa-5 = experiment: microbe, parasite or virus in culture; settings: strain AUMC-Pa-5; for MICa: MIC of the antibiotic: antibiotic alone; for MICa: MIC of the antibiotic / MICac: MIC of the antibiotic in the combination: unit not given; for MICac: MIC of the antibiotic in the combination: with D-11 at MICbc 4
Method in brief: as §1

P. aeruginosa AUMC-Pa-6 = experiment: microbe, parasite or virus in culture; settings: strain AUMC-Pa-6; for MICa: MIC of the antibiotic: antibiotic alone; for MICa: MIC of the antibiotic / MICac: MIC of the antibiotic in the combination: unit not given; for MICac: MIC of the antibiotic in the combination: with D-11 at MICbc 4
Method in brief: as §1

P. aeruginosa PAO1 = experiment: microbe, parasite or virus in culture; settings: PAO1
Method in brief: as §1

P. aeruginosa ATCC27853 = experiment: microbe, parasite or virus in culture; set-up: MICa: MIC of the antibiotic / MICac: MIC of the antibiotic in the combination: unit not given beside the values; settings: strain ATCC27853; for FICI: antibiotic + D-11 (MICb/MICbc 32/4); for MICa: MIC of the antibiotic: antibiotic alone; for MICa: MIC of the antibiotic / MICac: MIC of the antibiotic in the combination: unit not given; for MICac: MIC of the antibiotic in the combination: with D-11 at MICbc 4
Procedure: (§2) The MIC tests were performed in triplicate using broth microdilution in accordance with Clinical and Laboratory Standards Institute (CLSI) recommendations (http://iacld.ir/DL/public/CLSI-2018-M100-S28.pdf). Briefly, drugs were two-fold diluted in MHB and mixed with an equal volume of bacterial suspensions containing approximately 1 × 10^6 CFU/mL in 96-well microliter plate. After 18 h incubation at 37 °C, the MIC values were defined as the lowest concentrations of antibiotics with no visible growth of bacteria. […] Otherwise, 1/4 MIC of the peptide was used in the combination. […] If needed, membrane compounds PG, PE, PC, CL or LPS, or membrane stabilizers MgCl2 or CaCl2, or efflux pumps inhibitor PAβN were added to the broth medium to clarify the effect of other substances on the synergy between peptide and antibiotics. All the tests were performed in triplicate.
(§3) The fractional inhibitory concentration (FIC) indices were calculated using the previously described formula FICI = FICa + FICb = MICac/MICa + MICbc/MICb. The FICI was interpreted according to EUCAST [65] as follows: synergistic, FICI≤0.5; additive, 0.5<FICI≤1; indifferent, 1<FICI<2; antagonistic, FICI ≥2. For the FICI calculations, twice the highest concentration tested was used in the cases where the MIC was not reached.

P. aeruginosa NR-31040 = experiment: microbe, parasite or virus in culture; set-up: MICa: MIC of the antibiotic / MICac: MIC of the antibiotic in the combination: unit not given beside the values; settings: for MICac: MIC of the antibiotic in the combination: with D-11 at MICbc 4
Procedure: as §2, §3

P. aeruginosa NR-31041 = experiment: microbe, parasite or virus in culture; set-up: MICa: MIC of the antibiotic / MICac: MIC of the antibiotic in the combination: unit not given beside the values; settings: strain NR-31041; for MICa: MIC of the antibiotic: antibiotic alone; for MICa: MIC of the antibiotic / MICac: MIC of the antibiotic in the combination: unit not given; for MICac: MIC of the antibiotic in the combination: with D-11 at MICbc 4
Procedure: as §2, §3

P. aeruginosa PA14 = experiment: microbe, parasite or virus in culture; set-up: MICa: MIC of the antibiotic / MICac: MIC of the antibiotic in the combination: unit not given beside the values; settings: strain PA14; for MICa: MIC of the antibiotic: antibiotic alone; for MICa: MIC of the antibiotic / MICac: MIC of the antibiotic in the combination: unit not given; for MICac: MIC of the antibiotic in the combination: with D-11 at MICbc 4
Procedure: as §2, §3

P. aeruginosa PAK = experiment: microbe, parasite or virus in culture; set-up: MICa: MIC of the antibiotic / MICac: MIC of the antibiotic in the combination: unit not given beside the values; settings: strain PAK; for MICa: MIC of the antibiotic: antibiotic alone; for MICa: MIC of the antibiotic / MICac: MIC of the antibiotic in the combination: unit not given; for MICac: MIC of the antibiotic in the combination: with D-11 at MICbc 4
Procedure: as §2, §3

P. aeruginosa HM-214 = system: P. aeruginosa HM-214; set-up: MICa: MIC of the antibiotic / MICac: MIC of the antibiotic in the combination: unit not given beside the values; settings: strain HM-214
Procedure: as §2, §3

P. aeruginosa AUMC-Pa-1 = settings: strain AUMC-Pa-1
Procedure: as §2, §3

P. aeruginosa AUMC-Pa-2 = settings: strain AUMC-Pa-2
Procedure: as §2, §3

[1] = system: clinical P. aeruginosa isolates; experiment: microbe, parasite or virus in culture; settings: antibiotic alone; for MIC: Pseudomonas aeruginosa, 18 h
Method in brief: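 MIC is the lowest drug concentration showing no visible growth after 18 h at 37 °C. Two-fold dilutions in MHB were combined with an equal volume of bacterial suspension (about 1 × 10^6 CFU/mL), following CLSI broth microdilution, in triplicate.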

[2] = antibiotic + D-11 (MICb/MICbc 128/4)
[3] = antibiotic alone, unit not given
[4] = antibiotic + D-11 (MICb/MICbc 64/4)
[5] = strain NR-31040, unit not given
[6] = with D-11 at MICbc 4, unit not given

MICa: MIC of the antibiotic (P. aeruginosa AUMC-Pa-3; [3]): 8
MICac: MIC of the antibiotic in the combination (P. aeruginosa AUMC-Pa-3; unit not given): 1
MICa: MIC of the antibiotic (P. aeruginosa AUMC-Pa-4): 16
MICac: MIC of the antibiotic in the combination (P. aeruginosa AUMC-Pa-4): 2
MICa: MIC of the antibiotic (P. aeruginosa AUMC-Pa-5): 8/8
MICac: MIC of the antibiotic in the combination (P. aeruginosa AUMC-Pa-5): 8/8
MICa: MIC of the antibiotic (P. aeruginosa AUMC-Pa-6): 8
MICac: MIC of the antibiotic in the combination (P. aeruginosa AUMC-Pa-6): 2
MIC (P. aeruginosa PAO1; Pseudomonas aeruginosa, PAO1, 18 h, read-out: MICa: the MIC of antibiotics, S3 Table, antibiotic alone): 4 µM
MICac: the MIC for the antibiotic in the combination (P. aeruginosa PAO1; S3 Table, with 2 μM D-11): 0.125 µM
MICac: the MIC for the antibiotic in the combination (P. aeruginosa PAO1; S3 Table, with 4 μM D-11): 0.0625 µM
MICa: MIC of the antibiotic (P. aeruginosa ATCC27853): 8
MICac: MIC of the antibiotic in the combination (P. aeruginosa ATCC27853): 1
MIC (P. aeruginosa NR-31040; Pseudomonas aeruginosa, NR31040, 18 h, read-out: MICa: MIC of the antibiotic): 8 µM
MICac: MIC of the antibiotic in the combination (P. aeruginosa NR-31040; [5]): 0.5
MICa: MIC of the antibiotic (P. aeruginosa NR-31041): 8
MICac: MIC of the antibiotic in the combination (P. aeruginosa NR-31041): 1
MICa: MIC of the antibiotic (P. aeruginosa PA14): 8
MICac: MIC of the antibiotic in the combination (P. aeruginosa PA14): 1
MICa: MIC of the antibiotic (P. aeruginosa PAK): 8
MICac: MIC of the antibiotic in the combination (P. aeruginosa PAK): 1
MIC ([1]; read-out: Antibiotic sensibility (MIC) of clinical P. aeruginosa isolate AUMC-Pa-1, strain AUMC-Pa-1): 16 µM
MIC ([1]; read-out: Antibiotic sensibility (MIC) of clinical P. aeruginosa isolate AUMC-Pa-2, strain AUMC-Pa-2): 8 µM
MIC ([1]; read-out: Antibiotic sensibility (MIC) of clinical P. aeruginosa isolate AUMC-Pa-3, strain AUMC-Pa-3): 8 µM
MIC ([1]; read-out: Antibiotic sensibility (MIC) of clinical P. aeruginosa isolate AUMC-Pa-4, strain AUMC-Pa-4): 16 µM
MIC ([1]; read-out: Antibiotic sensibility (MIC) of clinical P. aeruginosa isolate AUMC-Pa-5, strain AUMC-Pa-5): 8 µM
MIC ([1]; read-out: Antibiotic sensibility (MIC) of clinical P. aeruginosa isolate AUMC-Pa-6, strain AUMC-Pa-6): 8 µM
MIC ([1]; read-out: Antibiotic sensibility (MIC) of clinical P. aeruginosa isolate HM-214, strain HM-214): 8 µM
MIC ([1]; read-out: Antibiotic sensibility (MIC) of clinical P. aeruginosa isolate NR-31040, strain NR-31040): 8 µM
MIC ([1]; read-out: Antibiotic sensibility (MIC) of clinical P. aeruginosa isolate NR-31041, strain NR-31041): 8 µM
Molecule: CN(C)[C@@H]1C(O)=C(C(N)=O)C(=O)[C@@]2(O)C(O)=C3C(=O)c4c(O)c(NC(=O)CN5CCCC5)cc(F)c4C[C@H]3C[C@@H]12 [Eravacycline]
FICI (P. aeruginosa AUMC-Pa-3; [2]): 0.156
FICI (P. aeruginosa AUMC-Pa-4; [2]): 0.156
FICI (P. aeruginosa AUMC-Pa-5; [4]): 1.063
FICI (P. aeruginosa AUMC-Pa-6; [4]): 0.313
FICI (P. aeruginosa PAO1; S3 Table, antibiotic + 2 μM D-11): 0.094
FICI (P. aeruginosa ATCC27853): 0.250
FICI (P. aeruginosa NR-31040; strain NR-31040, antibiotic + D-11 (MICb/MICbc 128/4)): 0.094
FICI (P. aeruginosa NR-31041; [4]): 0.188
FICI (P. aeruginosa PA14; [2]): 0.156
FICI (P. aeruginosa PAK; [4]): 0.188
FICI (P. aeruginosa HM-214; [2]): 0.281
FICI (P. aeruginosa AUMC-Pa-1; [2]): 0.156
FICI (P. aeruginosa AUMC-Pa-2; [4]): 0.313

MICac: MIC of the antibiotic in the combination (P. aeruginosa AUMC-Pa-3; unit not given): 64
MICa: MIC of the antibiotic (P. aeruginosa AUMC-Pa-4): >128/>128
MICac: MIC of the antibiotic in the combination (P. aeruginosa AUMC-Pa-4): >128/>128
MICa: MIC of the antibiotic (P. aeruginosa AUMC-Pa-5): >128/128
MICac: MIC of the antibiotic in the combination (P. aeruginosa AUMC-Pa-5): >128/128
MICa: MIC of the antibiotic (P. aeruginosa AUMC-Pa-6): >128/128
MICac: MIC of the antibiotic in the combination (P. aeruginosa AUMC-Pa-6): >128/128
MIC of spiramycin alone (P. aeruginosa PAO1): higher than 128 μM
MICa: the MIC of antibiotics (P. aeruginosa PAO1; S1 Table, macrolide alone): >128/>128 μM and >128/128 μM
MICa: MIC of the antibiotic (P. aeruginosa ATCC27853): >128/128
MICac: MIC of the antibiotic in the combination (P. aeruginosa ATCC27853): >128/128
MICa: MIC of the antibiotic (P. aeruginosa NR-31040; strain NR-31040, antibiotic alone, unit not given): >128/128
MICac: MIC of the antibiotic in the combination (P. aeruginosa NR-31040; [5]): >128/128
MICa: MIC of the antibiotic (P. aeruginosa NR-31041): >128/128
MICac: MIC of the antibiotic in the combination (P. aeruginosa NR-31041): >128/128
MICa: MIC of the antibiotic (P. aeruginosa PA14): >128/128
MICac: MIC of the antibiotic in the combination (P. aeruginosa PA14): >128/128
MICa: MIC of the antibiotic (P. aeruginosa PAK): >128/128
MICac: MIC of the antibiotic in the combination (P. aeruginosa PAK): >128/128
MICa: MIC of the antibiotic (P. aeruginosa HM-214; [3]): >128/128
MICac: MIC of the antibiotic in the combination (P. aeruginosa HM-214; [6]): >128/128
MICac: MIC of the antibiotic in the combination (P. aeruginosa AUMC-Pa-1; [6]): 64
MICa: MIC of the antibiotic (P. aeruginosa AUMC-Pa-2; [3]): >128/128
MICac: MIC of the antibiotic in the combination (P. aeruginosa AUMC-Pa-2; [6]): >128/128
Antibiotic sensibility (MIC) of clinical P. aeruginosa isolate AUMC-Pa-1 ([1]; strain AUMC-Pa-1): >128 µM
Antibiotic sensibility (MIC) of clinical P. aeruginosa isolate AUMC-Pa-2 ([1]; strain AUMC-Pa-2): >128 µM
Antibiotic sensibility (MIC) of clinical P. aeruginosa isolate AUMC-Pa-3 ([1]; strain AUMC-Pa-3): >128 µM
Antibiotic sensibility (MIC) of clinical P. aeruginosa isolate AUMC-Pa-4 ([1]; strain AUMC-Pa-4): >128 µM
Antibiotic sensibility (MIC) of clinical P. aeruginosa isolate AUMC-Pa-5 ([1]; strain AUMC-Pa-5): >128 µM
Antibiotic sensibility (MIC) of clinical P. aeruginosa isolate AUMC-Pa-6 ([1]; strain AUMC-Pa-6): >128 µM
Antibiotic sensibility (MIC) of clinical P. aeruginosa isolate HM-214 ([1]; strain HM-214): >128 µM
Antibiotic sensibility (MIC) of clinical P. aeruginosa isolate NR-31040 ([1]; strain NR-31040): >128 µM
Antibiotic sensibility (MIC) of clinical P. aeruginosa isolate NR-31041 ([1]; strain NR-31041): >128 µM
Molecule: Spiramycin
FICI (P. aeruginosa PAO1; spiramycin + D-11, 256 used for the calculation): 0.625
FICI (P. aeruginosa ATCC27853): 0.625
